This note sets out measurements from patent publication US11932633B2, “KRas G12C inhibitors” (Mirati Therapeutics, Inc., priority 2018, dated 2024).

The target of test [1] is T1, KRas G12C (Homo sapiens, UniProt P01116, C118S/C51S/C80L/G12C).
T1 construct: GDP-loaded K-Ras (1-169) G12C, C51S, C80L, C118S
Description: KRas G12C Modification Assay (LCMS detection of covalent adduct). In kind it is binding. Particulars: 5 μM concentration for 3 hours. As for the experimental part:
This Example illustrates that exemplary compounds of the present invention covalently bind to KRas G12C using a LCMS assay to detect a covalent adduct of the exemplary compound and KRAS G12C.
The protein concentration of GDP-loaded K-Ras (1-169) G12C, C51S, C80L, C118S and GTP-loaded K-Ras (1-169) G12C, C51S, C80L, C118S, Q61H was adjusted to 2 μM in K-Ras Assay Buffer (25 mM HEPES, 150 mM NaCl, 5 mM MgCl2, and 10 mM Octyl β-glucopyranoside at pH 7.5). A 10 μL aliquot of each protein solution was transferred to a 384 well microtiter plate. Initial compound stocks were generated at fifty times their desired final assay concentration in DMSO.
Exemplary compounds of formula (I) were diluted 25-fold into K-Ras Assay Buffer to a final of two times their final concentration. A 10 μL aliquot of each diluted compound solution was added to each of the protein solutions in the microtiter plate to initiate reaction. Typical final compound concentrations were 3.0, 5.0 and 25.0 μM. At each time point, the reactions were quenched with 20 μL of a 25 mM acetic acid solution. Usual assay endpoints were 15, 180 and 1440 minutes. Once all reactions were quenched, the plates were heat sealed and the samples were injected into a LC/MS system for data acquisition.
Data collection took place on an Agilent 6520 Q-TOF Accurate Mass Spectrometer. Samples were injected in their liquid phase onto a C-3 reverse phase column to remove assay buffer and prepare the samples for mass spectrometer. The proteins were eluted from the column using an acetonitrile gradient and fed directly into the mass analyzer. Initial raw data analysis took place in Agilent MassHunter software immediately post data acquisition.
Raw data analysis of the intact protein was exclusively a deconvolution of the multiple charge states of each protein in solution using a maximum entropy deconvolution provided in Mass Hunter. To minimize complexity, only the data over limited mass ranges were considered for analysis, with a minimum of one Dalton mass step intervals. The heights of all masses identified during raw data analysis were exported to be further analyzed in Spotfire® data analysis software.
Final data analysis was a multistep process in the Spotfire® data analysis software package. Briefly, each protein mass was calculated as a percent of the total signal of that sample, that percentage was normalized to the percentage of signal of the protein in the absence of reactive compounds. Those normalized signals were reported as normalized percent of control (POC). […] Key: N.D. is not determined.

Test [2] addresses T2, KRas G12C (Homo sapiens, UniProt P01116, G12C).
T2 construct: NCI-11358 cells (ATCC CRL-5807) express KRas G12C; host or cells: NCI-H358
Description: Cellular inhibition of KRas G12C measured by Phospho-ERK in NCI-11358 cells. It is filed as cell-based. Particulars: NCI-11358 cells (ATCC CRL-5807), 3 hours; read-out: Inhibition (IC50, pERK (Thr202/Tyr204) signal normalized with GAPDH). How it is done:
The cellular inhibition of KRAs G12C by exemplary compounds of the present invention was determined by measuring the amount of a downstream marker of KRas activity, phosphorylated ERK (“Phospho-ERK”).
NCI-11358 cells (ATCC CRL-5807) express KRas G12C and were grown in RPMI medium supplemented with 10% fetal bovine serum, penicillin/streptomycin and 10 mM HEPES. Cells were plated in poly-D-Lysine coated 96-well plates at a concentration of 50,000 cells/well and allowed to attach for 8-12 hours. Diluted compounds were then added at a final concentration of 0.5% DMSO. After 3 hours, the medium was removed, 150 μL of 4% formaldehyde was added and the plates were incubated for 20 minutes. The plates were washed with PBS, and permeabilized using 150 μL of ice cold 100% methanol for 10 minutes. Non-specific antibody binding to the plates was blocked using 100 μL Licor Blocking Buffer (Li-Cor Biotechnology, Lincoln NE) for 1 hour at room temperature. Positive control samples and samples lacking cells were parallel processed with test samples as standards.
The amount Phospho-ERK was determined using an antibody specific for the phosphorylated form of ERK and compared to the amount of GAPDH. Primary antibodies used for detection were added as follows: Phospho-ERK (Cell Signaling cs9101) diluted 1:500 and GAPDH (Millipore MAB374) diluted 1:5000 in Licor block+0.05% Tween 20. The plates were incubated for 2 hours at room temperature. The plates were washed with PBS+0.05% Tween 20.
Secondary antibodies used to visualize primary antibodies were added as follows: Anti-rabbit-680 diluted 1:1000 and Anti-mouse-800 diluted 1:1000 in Licor Block+0.05% Tween 20 and incubated for 1 hour at room temperature. The plates were washed with PBS+0.05% Tween 20. A 100 μL aliquot of PBS was added to each well and the plates were read on a LICOR AERIUS plate reader.
The pERK (Thr202/Tyr204) signal was normalized with the GAPDH signal and percent of DMSO control values were calculated. IC50 values were generated using a 4 parameter fit of the dose response curve. Key: “A”: ≤1 μM, “B”>1 μM and N.D.=not determined.

For the molecule `C=CC(=O)N1CC(C)(CN2C(=O)COc3cc(-c4cc(O)cc5ccccc45)c(Cl)cc32)C1` [Example 17, 4-((1-acryloyl-3-methylazetidin-3-yl)methyl)-6-chloro-7-(3-hydroxynaphthalen-1-yl)-2H-benzo[b][1,4]oxazin-3(4H)-one], in test [1], the “POC (normalized percent of control, covalent modification of KRas G12C)” value was 85% of control. In test [2], the IC50 was greater than 1 µM.

On to `C=CC(=O)N1CC(CN2C(=O)[C@@H](CCN(C)C)Oc3cc(-c4cc(O)cc5ccccc45)c(Cl)cc32)C1` [Example 18, (R)-4-((1-acryloylazetidin-3-yl)methyl)-6-chloro-2-(2-(dimethylamino)ethyl)-7-(3-hydroxynaphthalen-1-yl)-2H-benzo[b][1,4]oxazin-3(4H)-one], for which the “POC (normalized percent of control, covalent modification of KRas G12C)” value in test [1] is reported as 91% of control. The IC50 in test [2] is no more than 1 µM.

For the molecule `C=CC(=O)N1CC(CN2C(=O)COc3cc(-c4cc(O)cc5ccccc45)c(C)cc32)C1` [Example 19, 4-((1-acryloylazetidin-3-yl)methyl)-7-(3-hydroxynaphthalen-1-yl)-6-methyl-2H-benzo[b][1,4]oxazin-3(4H)-one], the “POC (normalized percent of control, covalent modification of KRas G12C)” value in test [1] is on record as 99% of control. Besides, the IC50 in test [2] is greater than 1 µM.

As for `C=CC(=O)N1CC(CN2C(=O)C(CC3CCN(C)CC3)Oc3cc(-c4cc(O)cc5ccccc45)c(Cl)cc32)C1` (stereo not drawn) [Example 20, 4-((1-acryloylazetidin-3-yl)methyl)-6-chloro-7-(3-hydroxynaphthalen-1-yl)-2-((1-methylpiperidin-4-yl)methyl)-2H-benzo[b][1,4]oxazin-3(4H)-one], the “POC (normalized percent of control, covalent modification of KRas G12C)” value in test [1] was 99% of control. For the same molecule, the IC50 in test [2] was no more than 1 µM.

With `C=CC(=O)N1CC(CN2C(=O)COc3cc(-c4cccc5ccccc45)c(Cl)cc32)C1` [Example 21, 4-((1-acryloylazetidin-3-yl)methyl)-6-chloro-7-(naphthalen-1-yl)-2H-benzo[b][1,4]oxazin-3(4H)-one], the “POC (normalized percent of control, covalent modification of KRas G12C)” value in test [1] is on record as 90% of control. In addition, in test [2], the IC50 is greater than 1 µM.

Turning to `C=CC(=O)N1CC(CN2C(=O)C(CCCN3CCCC3)Oc3cc(-c4cc(O)cc5ccccc45)c(Cl)cc32)C1` (stereo not drawn) [Example 22, 4-((1-acryloylazetidin-3-yl)methyl)-6-chloro-7-(3-hydroxynaphthalen-1-yl)-2-(3-(pyrrolidin-1-yl)propyl)-2H-benzo[b][1,4]oxazin-3(4H)-one 2,2,2-trifluoroacetate], the “POC (normalized percent of control, covalent modification of KRas G12C)” value in test [1] was 97% of control. For the same molecule, in test [2], the IC50 was no more than 1 µM.

On to `C=CC(=O)N1CC(C(C)N2C(=O)COc3cc(-c4cc(O)cc5ccccc45)c(Cl)cc32)C1` (stereo not drawn) [Example 23, 4-(1-(1-acryloylazetidin-3-yl)ethyl)-6-chloro-7-(3-hydroxynaphthalen-1-yl)-2H-benzo[b][1,4]oxazin-3(4H)-one], for which the “POC (normalized percent of control, covalent modification of KRas G12C)” value in test [1] is reported as 34% of control. In addition, the IC50 in test [2] is greater than 1 µM.

Turning to `C=CC(=O)N1CC(CN2C(=O)C(CN3CCCC3)Oc3cc(-c4cccc5ccccc45)c(Cl)cc32)C1` (stereo not drawn) [Example 24, 4-((1-acryloylazetidin-3-yl)methyl)-6-chloro-7-(naphthalen-1-yl)-2-(pyrrolidin-1-ylmethyl)-2H-benzo[b][1,4]oxazin-3(4H)-one 2,2,2-trifluoroacetate], the “POC (normalized percent of control, covalent modification of KRas G12C)” value in test [1] was 86% of control. Also, the IC50 in test [2] was greater than 1 µM.

For the molecule `C=CC(=O)N1CC(CN2C(=O)C(CCCN3CCOCC3)Oc3cc(-c4cc(O)cc5ccccc45)c(Cl)cc32)C1` (stereo not drawn) [Example 25, 4-((1-acryloylazetidin-3-yl)methyl)-6-chloro-7-(3-hydroxynaphthalen-1-yl)-2-(3-morpholinopropyl)-2H-benzo[b][1,4]oxazin-3(4H)-one 2,2,2-trifluoroacetate], the “POC (normalized percent of control, covalent modification of KRas G12C)” value in test [1] is 93% of control. The IC50 in test [2] is no more than 1 µM.

With `C=CC(=O)N1CC(CN2C(=O)[C@H](CCN(C)C)Oc3cc(-c4cc(O)cc5ccccc45)c(Cl)cc32)C1` [Example 26, (S)-4-((1-acryloylazetidin-3-yl)methyl)-6-chloro-2-(2-(dimethylamino)ethyl)-7-(3-hydroxynaphthalen-1-yl)-2H-benzo[b][1,4]oxazin-3(4H)-one], the “POC (normalized percent of control, covalent modification of KRas G12C)” value in test [1] is listed as 90% of control. The IC50 in test [2] was no more than 1 µM.

For the molecule `C=CC(=O)N1CC(CN2C(=O)C(CN(C)C)Oc3cc(-c4cc(O)cc5ccccc45)c(Cl)cc32)C1` (stereo not drawn) [Example 27, 4-((1-acryloylazetidin-3-yl)methyl)-6-chloro-2-((dimethylamino)methyl)-7-(3-hydroxynaphthalen-1-yl)-2H-benzo[b][1,4]oxazin-3(4H)-one], in test [1], the “POC (normalized percent of control, covalent modification of KRas G12C)” value is listed as 94% of control. Moreover, the IC50 in test [2] was no more than 1 µM.

Consider `C=CC(=O)N1CC(CN2C(=O)C(CN3CC[C@@H](OC)C3)Oc3cc(-c4cc(O)cc5ccccc45)c(Cl)cc32)C1` (stereo partly drawn) [Example 28, 4-((1-acryloylazetidin-3-yl)methyl)-6-chloro-7-(3-hydroxynaphthalen-1-yl)-2-(((R)-3-methoxypyrrolidin-1-yl)methyl)-2H-benzo[b][1,4]oxazin-3(4H)-one], for which the “POC (normalized percent of control, covalent modification of KRas G12C)” value in test [1] is reported as 93% of control. Further, the IC50 in test [2] was no more than 1 µM.

As to `C=CC(=O)N1CC(CN2C(=O)COc3cc(-c4onc5ccccc45)c(Cl)cc32)C1` [Example 29, 4-((1-acryloylazetidin-3-yl)methyl)-7-(benzo[c]isoxazol-3-yl)-6-chloro-2H-benzo[b][1,4]oxazin-3(4H)-one], the “POC (normalized percent of control, covalent modification of KRas G12C)” value in test [1] is recorded as 25% of control. Moreover, in test [2], the IC50 was greater than 1 µM.

As for `C=CC(=O)N1CC(CN2C(=O)C(CN3CC[C@H](OC)C3)Oc3cc(-c4cc(O)cc5ccccc45)c(Cl)cc32)C1` (stereo partly drawn) [Example 30, 4-((1-acryloylazetidin-3-yl)methyl)-6-chloro-7-(3-hydroxynaphthalen-1-yl)-2-(((S)-3-methoxypyrrolidin-1-yl)methyl)-2H-benzo[b][1,4]oxazin-3(4H)-one], in test [1], the “POC (normalized percent of control, covalent modification of KRas G12C)” value is given as 93% of control. Further, the IC50 in test [2] was no more than 1 µM.

Consider `C=CC(=O)N1CC(CN2C(=O)COc3cc(-c4cc(O)cc5ccccc45)c(Br)cc32)C1` [Example 31, 4-((1-acryloylazetidin-3-yl)methyl)-6-bromo-7-(3-hydroxynaphthalen-1-yl)-2H-benzo[b][1,4]oxazin-3(4H)-one], for which, in test [1], the “POC (normalized percent of control, covalent modification of KRas G12C)” value is listed as 88% of control. In addition, in test [2], the IC50 is no more than 1 µM.
